Patent US12129275B2, “Neuroactive steroids, compositions, and uses thereof” (SAGE THERAPEUTICS, INC., priority 2011, dated 2024)
“And” between values parts separate entries of the source, which are not always exact repeats. Equal values may be shown once.

Columns and labels:
[1] = target: T1, NMDA receptor (GRIN1/GRIN2A subunits) (Homo sapiens, UniProt Q05586+Q12879); assay: NMDA potentiation, whole-cell patch-clamp in HEK cells; format: cell-based; conditions: currents evoked by 30 μM NMDA and 5.0 μM Glycine, holding potential −80 mV; for NMDA 1a2A (%) Potentiation 0.1 uM: compound 0.1 uM; for NMDA 1a2A (%) Potentiation 1 uM: compound 1 uM
T1 construct: expressed in transfected cells
T1 sequence (Q12879 23-1464, other chains not shown): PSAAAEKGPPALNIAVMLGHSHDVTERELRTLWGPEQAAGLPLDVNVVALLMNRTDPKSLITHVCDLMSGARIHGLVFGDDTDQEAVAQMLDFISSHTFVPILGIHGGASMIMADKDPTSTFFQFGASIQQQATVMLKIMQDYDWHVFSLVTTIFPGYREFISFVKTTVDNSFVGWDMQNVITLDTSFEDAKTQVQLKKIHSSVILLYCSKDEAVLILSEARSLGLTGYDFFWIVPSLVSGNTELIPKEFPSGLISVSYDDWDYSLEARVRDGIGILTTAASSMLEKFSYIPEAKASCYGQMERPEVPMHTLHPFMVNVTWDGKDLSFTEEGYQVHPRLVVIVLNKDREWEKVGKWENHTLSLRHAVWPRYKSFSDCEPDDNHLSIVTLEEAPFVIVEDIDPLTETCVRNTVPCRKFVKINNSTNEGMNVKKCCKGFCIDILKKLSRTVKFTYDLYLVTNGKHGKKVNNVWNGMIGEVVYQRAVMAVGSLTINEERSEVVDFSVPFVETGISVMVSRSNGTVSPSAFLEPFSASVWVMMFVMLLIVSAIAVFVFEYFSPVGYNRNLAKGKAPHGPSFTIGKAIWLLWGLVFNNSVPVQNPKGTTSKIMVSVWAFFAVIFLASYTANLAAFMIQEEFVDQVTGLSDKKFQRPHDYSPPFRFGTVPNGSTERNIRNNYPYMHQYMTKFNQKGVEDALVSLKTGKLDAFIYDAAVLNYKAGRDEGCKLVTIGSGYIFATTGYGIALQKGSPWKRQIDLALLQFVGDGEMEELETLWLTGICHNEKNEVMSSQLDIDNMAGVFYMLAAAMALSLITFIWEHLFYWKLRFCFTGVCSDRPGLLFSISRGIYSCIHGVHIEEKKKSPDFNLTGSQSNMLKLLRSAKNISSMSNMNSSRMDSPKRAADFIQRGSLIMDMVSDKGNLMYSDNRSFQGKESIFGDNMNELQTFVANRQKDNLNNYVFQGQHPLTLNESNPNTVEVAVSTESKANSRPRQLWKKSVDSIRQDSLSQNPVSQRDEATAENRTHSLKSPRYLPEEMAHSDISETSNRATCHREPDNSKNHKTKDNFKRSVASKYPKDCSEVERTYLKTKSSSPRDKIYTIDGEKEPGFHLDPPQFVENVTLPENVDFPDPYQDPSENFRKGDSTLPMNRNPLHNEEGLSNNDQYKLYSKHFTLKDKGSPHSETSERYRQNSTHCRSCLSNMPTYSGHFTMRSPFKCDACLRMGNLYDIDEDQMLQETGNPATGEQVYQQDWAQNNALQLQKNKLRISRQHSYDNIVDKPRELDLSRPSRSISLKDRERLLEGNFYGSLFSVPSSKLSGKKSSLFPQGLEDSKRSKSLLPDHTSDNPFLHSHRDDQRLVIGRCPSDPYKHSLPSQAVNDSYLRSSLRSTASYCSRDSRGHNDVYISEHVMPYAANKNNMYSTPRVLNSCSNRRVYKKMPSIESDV

NMDA receptors = conditions: background statement; cited from earlier work
NMDA (NR1a/NR2A) = NMDA (NR1a/NR2A) (Homo sapiens, UniProt Q05586+Q12879); conditions: reported, Madau et al. / Connick et al. 2009; cited from earlier work
NMDA (NR1a/NR2A), sequence (Q12879 23-1464, other chains not shown): as above

| Molecule | NMDA 1a2A (%) Potentiation 0.1 uM [1] | NMDA 1a2A (%) Potentiation 1 uM [1] | modulation of NMDA receptors (NMDA receptors) | modulation of NMDA (NR1a/NR2A) (NMDA (NR1a/NR2A)) | selectivity NMDA over GABAA (NMDA (NR1a/NR2A)) |
| --- | --- | --- | --- | --- | --- |
| CC[C@@]1(O)CC[C@@]2(C)C(=CC[C@H]3[C@@H]4CC[C@H]([C@H](C)CCC(C)(C)O)[C@@]4(C)CC[C@@H]32)C1 | 23% | 139% |  |  |  |
| CC[C@]1(O)CC[C@@]2(C)C(=CC[C@H]3[C@@H]4CC[C@H]([C@H](C)CCC(C)(C)O)[C@@]4(C)CC[C@@H]32)C1 | 181% | 286% |  |  |  |
| C[C@H](CCC(C)(C)O)[C@H]1CC[C@H]2[C@@H]3CC[C@H]4C[C@@](C)(O)CC[C@@H]4[C@H]3CC[C@]12C | 25% | 114% |  |  |  |
| C[C@H](CCC(C)(C)O)[C@H]1CC[C@H]2[C@@H]3CC[C@H]4C[C@@](C)(O)CC[C@]4(C)[C@H]3CC[C@]12C | 87% and 70% | 278% and 238% |  |  |  |
| CC(C)(O)COC[C@H]1CCC2C3CC=C4C[C@@](C)(O)CC[C@]4(C)C3CC[C@@]21C (stereo partly shown) | −5% | −14% |  |  |  |
| C[C@H](CCC(C)(C)O)[C@H]1CC[C@H]2[C@@H]3CC[C@H]4C[C@@H](O)CC[C@@H]4[C@H]3CC[C@]12C | 19% | 44% |  |  |  |
| C[C@H](CC(F)(F)CO)[C@H]1CC[C@H]2[C@@H]3CC=C4C[C@@H](O)CC[C@]4(C)[C@H]3CC[C@]12C | 31% | 95% |  |  |  |
| pregnenolone sulfate [PS] |  |  | positively modulated |  |  |
| C[C@H](CCCO)[C@H]1CC[C@H]2[C@@H]3CC=C4C[C@@H](O)CC[C@]4(C)[C@H]3CC[C@]12C | 39% | 127% |  |  |  |
| CC(CCC(C)(C)O)[C@H]1CC[C@H]2[C@@H]3CC=C4C[C@@H](O)CC[C@]4(C)[C@H]3CC[C@]12C (stereo partly shown) | 55% | 197% |  |  |  |
| CC(C)[C@H](O)CC[C@@H](C)[C@H]1CC[C@H]2[C@@H]3CC=C4C[C@@H](O)CC[C@]4(C)[C@H]3CC[C@]12C | 82% | 137% |  |  |  |
| C[C@H](CCC(C)(C)O)[C@H]1CC[C@H]2[C@@H]3CC[C@H]4C[C@](C)(O)CC[C@@H]4[C@H]3CC[C@]12C | 21% | 52% |  |  |  |
| C[C@H](CCC(C)(C)O)[C@H]1CC[C@H]2[C@@H]3CC=C4C[C@](C)(O)CC[C@]4(C)[C@H]3CC[C@]12C | 13% | 60% |  |  |  |
| C[C@H](CCC(C)(C)O)[C@H]1CC[C@H]2[C@@H]3CC[C@@H]4C[C@@](O)(C(F)(F)F)CC[C@]4(C)[C@H]3CC[C@]12C | 9% | 18% |  |  |  |
| C[C@H](CCC(C)(C)O)[C@H]1CC[C@H]2[C@@H]3CC[C@H]4C[C@](C)(O)CC[C@]4(C)[C@H]3CC[C@]12C | 19% | 30% |  |  |  |
| C[C@H](CCC(C)(C)N)[C@H]1CC[C@H]2[C@@H]3CC=C4C[C@@H](O)CC[C@]4(C)[C@H]3CC[C@]12C | −8% | −19% |  |  |  |

| Molecule | NMDA 1a2A (%) Potentiation 0.1 uM [1] | NMDA 1a2A (%) Potentiation 1 uM [1] | modulation of NMDA receptors (NMDA receptors) | modulation of NMDA (NR1a/NR2A) (NMDA (NR1a/NR2A)) | selectivity NMDA over GABAA (NMDA (NR1a/NR2A)) |
| --- | --- | --- | --- | --- | --- |
| COC[C@@]1(O)CC[C@@]2(C)[C@@H](CC[C@@H]3[C@@H]2CC[C@]2(C)[C@@H]([C@H](C)CCC(C)(C)O)CC[C@@H]32)C1 | 8% | 25% |  |  |  |
| C[C@H](CC(C)(C)O)[C@H]1CC[C@H]2[C@@H]3CC=C4C[C@@H](O)CC[C@]4(C)[C@H]3CC[C@]12C | −5% | 27% |  |  |  |
| COC[C@]1(O)CC[C@@]2(C)[C@@H](CC[C@@H]3[C@@H]2CC[C@]2(C)[C@@H]([C@H](C)CCC(C)(C)O)CC[C@@H]32)C1 | 14% | 110% |  |  |  |
| C[C@H](CCC(C)(C)O)[C@H]1CC[C@H]2[C@@H]3CC[C@H]4C[C@](O)(C(F)(F)F)CC[C@@H]4[C@H]3CC[C@]12C | 14% | 85% |  |  |  |
| CC(O)CC[C@@H](C)[C@H]1CC[C@H]2[C@@H]3CC=C4C[C@@H](O)CC[C@]4(C)[C@H]3CC[C@]12C (stereo partly shown) | 42% | 98% |  |  |  |
| C[C@@H]([C@H]1CC[C@H]2[C@@H]3CC=C4C[C@@H](O)CC[C@]4(C)[C@H]3CC[C@]12C)C(C)(C)O | 4% | 24% |  |  |  |
| C[C@H](CCC(C)(C)O)[C@H]1CC[C@H]2[C@@H]3CC[C@H]4C[C@@H](O)CC[C@]4(C)[C@H]3CC[C@]12C | 18% | 85% |  |  |  |
| C[C@H](CCC(C)(C)O)[C@H]1CC[C@H]2[C@@H]3CC=C4C[C@@](C)(O)CC[C@]4(C)[C@H]3CC[C@]12C | 128% | 348% |  |  |  |
| C[C@H](CCC1(O)CC1)[C@H]1CC[C@H]2[C@@H]3CC=C4C[C@@H](O)CC[C@]4(C)[C@H]3CC[C@]12C | 74% | 171% |  |  |  |
| C[C@H](CCC(C)(C)O)[C@H]1CC[C@H]2[C@@H]3CC=C4C[C@@H](O)CC[C@]4(C)[C@H]3CC[C@]12C [Org-1] |  |  |  | positive modulator | selectively modulate NMDA over GABAA |
| C[C@H](CCC(C)(C)O)[C@H]1CC[C@H]2[C@@H]3CC[C@H]4C[C@](O)(C(F)(F)F)CC[C@]4(C)[C@H]3CC[C@]12C | 59% | 172% |  |  |  |
| CC(C)(O)CCC[C@H]1CCC2C3CC[C@H]4C[C@@](C)(O)CC[C@]4(C)C3CC[C@@]21C (stereo partly shown) | 17% | 105% |  |  |  |
| CC(C)(O)CCO[C@H]1CCC2C3CC[C@H]4C[C@@](C)(O)CC[C@]4(C)C3CC[C@@]21C (stereo partly shown) | 6% | 27% |  |  |  |
| C[C@H](CCC(C)(C)O)[C@H]1CC[C@H]2[C@@H]3CC=C4C[C@@H](O)CC[C@@H]4[C@H]3CC[C@]12C | 28% | 66% |  |  |  |
| CNC(C)(C)CC[C@@H](C)[C@H]1CC[C@H]2[C@@H]3CC=C4C[C@@H](O)CC[C@]4(C)[C@H]3CC[C@]12C | 25% | 19% |  |  |  |
